Measured values taken from patent US10676710B2, “Cell culture compositions with antioxidants and methods for polypeptide production” (Genentech, Inc., priority 2013, dated 2020).

Experiments:
[1] = test system: antibody producing CHO cells; experiment: 2-liter stirred bioreactor fed-batch cell culture in basal Media 1/feed Media 2 supplemented with hypotaurine or analog; format: cell-based, Chinese hamster; details: for cell growth as measured by VCC: 12.95 mM hypotaurine or 10 mM carboxymethylcysteine in Media 1, 2 L bioreactor (FIG. 7A); for cell viability: 12.95 mM hypotaurine or 10 mM carboxymethylcysteine in Media 1, 2 L bioreactor (FIG. 7B); for antibody production (antibody titer by HPLC): 12.95 mM hypotaurine or 10 mM carboxymethylcysteine in Media 1, 2 L bioreactor (FIG. 8); for color intensity reduction of isolated antibody composition, specific color assay / color intensity reduction of isolated antibody composition, second color assay: 12.95 mM hypotaurine or 10 mM carboxymethylcysteine in Media 1, protein A pool 150 g/L; for color intensity reduction of isolated antibody composition, specific color assay: vs positive control (FIG. 9A); for color intensity reduction of isolated antibody composition, second color assay: vs positive control (FIG. 9B)
Procedure: Antibody producing CHO cells were inoculated at approximately 1.0×10^6 cells/mL in 2-liter stirred bioreactors (Applikon, Foster City, Calif.) containing 1 L of basal Media 1 supplemented with 12.95 mM hypotaurine or 10 mM carboxymethylcysteine (CAS number 638-23-3). Cells were cultured in fed-batch mode with addition of 100 mL of feed Media 2 per liter of cell culture fluid at days 3, 6 and 9 for initiation of the production phase. A positive control was included by culturing cells in Media 1 and 2 without hypotaurine supplementation. The concentration of glucose was analyzed every day and if the glucose concentration fell below 2 g/L, it was replenished from a […] stock solution of glucose for prevention of glucose depletion. Reactors were equipped with calibrated dissolved oxygen, pH and temperature probes. Dissolved oxygen was controlled on-line through sparging with air and/or oxygen. pH was controlled through addition of CO2 or Na2CO3 and antifoam was added to the cultures as needed. The cell cultures were maintained at pH 7.0 and a temperature of 37° C. from days 0 through 3, and then at 35° C. after day 3. The cell cultures were agitated at 275 rpm and the dissolved oxygen level was at 30% of air saturation. Osmolality was monitored using an osmometer from Advanced Instruments (Norwood, Mass.). Offline pH and metabolite concentrations were also determined daily using a Nova Bioprofile 400 (Nova Biomedical, Waltham, Mass.). VCC and cell viability was measured daily using a ViCell® automated cell counter (Beckman Coulter, Fullerton, Calif.). The cell culture fluid was collected daily by centrifuging 1 mL of cell culture fluid for determination of antibody titer using high performance liquid chromatography. At the end of the cell culture duration on day 14, when the amount of protein in the culture was approximately 2-10 g/L, the cell culture fluid from all samples was harvested by centrifugation. The monoclonal antibody in the harvested cell culture fluid was purified using protein A affinity chromatography. The protein A pool was concentrated to 150 g/L using Amicon Centricon centrifugal filter devices (Millipore Corporation, Billerica, Mass.). Color intensity of the concentrated antibody composition was measured in the concentrated protein A pool using two different assays wherein higher numerical values indicated higher color intensity and lower numerical values indicated lower color intensity. […] This color intensity reduction was confirmed by using a second color assay which detected an approximate 17% and 13% color intensity reduction in antibody compositions isolated from cell cultured in media supplemented with hypotaurine and carboxymethylcysteine, respectively (FIG. 9B).

IgG1 monoclonal antibody = experiment: Antioxidant incubation screening: color intensity of antibody composition after incubation in Media 1/Media 2 mixture; details: 1X test concentration in Media 1 + Media 2 mixture, 2 g/L IgG1 mAb, 5 days 37° C.; normalized to positive control (0% change)
Procedure: For antioxidant screening, a total volume of 40 ml media was prepared by mixing 1 part basal Media 1 and 0.3 part feed Media 2 to mirror a representative ratio of media used in cell culture conditions (Table 5). […] The samples were incubated at 37° C. with shaking at 250 rpm for a five day incubation period.
After incubation, the monoclonal antibody was purified using protein A affinity chromatography. The pool was concentrated to 150 g/L using Amicon Centricon centrifugal filter devices (Millipore Corporation, Billerica, Mass.). Color intensity of the concentrated antibody composition was measured in the concentrated protein A pool using an assay wherein higher numerical values indicate higher color intensity and lower numerical values indicate lower color intensity. The numerical results were normalized to the positive control, where the value for the positive control was set at 0% change in color intensity.

[2] = listed as carboxy methyl cysteine

Structure (SMILES)	cell growth as measured by VCC [1]	cell growth as measured by VCC [1, 2]	cell viability [1]	cell viability [1, 2]	antibody production (antibody titer by HPLC) [1]	antibody production (antibody titer by HPLC) [1, 2]	color intensity reduction of isolated antibody composition, specific color assay [1]	color intensity reduction of isolated antibody composition, second color assay [1]	reduction of color intensity of the antibody-containing compositions (IgG1 monoclonal antibody)
N[C@@H](CSCC(=O)O)C(=O)O [carboxymethylcysteine, (2R)-2-amino-3-[(carboxymethyl)sulfanyl]propanoic acid]	comparable	did not compromise	comparable	did not compromise	comparable levels of antibody titers	did not significantly reduce	13%	~13%	–
NCCS(=O)(=O)O [Taurine, 2-aminoethane-1-sulfonic acid]	–	–	–	–	–	–	–	–	approximately 5%
NCCS(=O)O [hypotaurine, 2-aminoethane-1-sulfinate]	–	–	–	–	–	–	27%	~17%	–
